The values that follow come from PubChem BioAssay (NCI).

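Compound exposure: 48 hours, 5 concentrations, 96-well plates. Here, GI50 denotes the concentration required for 50% inhibition of growth. Definition used: TGI = concentration required for complete inhibition of growth.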 A value given as a limit tells only on which side of the number the result lay.

Experiment in all cases: NCI tumour cell line growth inhibition, 48 h
The test system of assay [1] is 786-0 renal.
Assay [2] deals with HOP-62 NSCLC.
Assay [3] has as its system NCI-H23 lung.
In assay [4] the test system is SF-539 CNS.
The subject of assay [5] is SN12C renal.
Assay [6] concerns SNB-75 CNS.
In assay [7] the test system is T-47D breast.
The test system of assay [8] is TK-10 renal.
The subject of assay [9] is UACC-257 melanoma.
Assay [10] has as its system MCF7 breast.

With `COc1cc(Br)c(CC2C3=C(CCN2C(=O)C2CCC2)CC(=O)CC3)cc1O` (stereo not drawn), the TGI in [1] is 95.8 µM; in assay [2], > 100 µM; in assay [3] it was 51.9 µM; in assay [4] it was > 100 µM; in assay [5], > 100 µM; in assay [6], 71.1 µM. The TGI in [7] was 71.8 µM; in assay [8], > 100 µM; in [9], > 100 µM.
With `Cc1nc2ccccc2c(/C=C/c2ccc(Cl)cc2)c1C(=O)/C=C/c1ccccc1`, the GI50 is 1.7 µM in assay [4] and 1.67 µM in assay [5]. The figures for the TGI in [4] and in assay [5] were 3.11 µM and 3.36 µM, respectively.
Consider `N#CC(C#N)=C1C(=O)NC(N)=C1C#N`, for which the TGI in assay [1], in [2], in [10], in assay [3], in assay [5] and in assay [7] was > 100 µM throughout. The TGI in assay [8] and in assay [9] was > 100 µM each time.
For `Cc1ccc(CCC(=O)C(=O)O)s1`, the TGI in [2], in assay [3], in assay [4], in assay [5], in assay [6] and in assay [8] was > 100 µM each time. The TGI in assay [9] was > 100 µM.
Take `CCOc1ccc2c(c1)c(=O)c1c(NCCN(CC)CC)ccc3nnn2c31`: the TGI in assay [1] was > 49 µM; in assay [2] it was > 48.8 µM; in assay [10], > 68.7 µM; in [3], 38.6 µM; in assay [4] it was 24.1 µM; in assay [5], > 100 µM. In addition, the TGI is > 100 µM in assay [7], 37.9 µM in assay [8] and > 59.6 µM in assay [9].
With `CNc1ncnc2c1cnn2Cc1cn(COCC(O)CO)nn1` (stereo not drawn), the TGI in assay [1], in assay [2], in [10], in assay [3], in assay [4] and in assay [5] was > 100 µM each time. In addition, the TGI in assay [7], in assay [8] and in [9] was > 100 µM throughout.
With `Fc1cc(-c2cc(-c3ccc4c(c3)OCO4)n[nH]2)c(Cl)cc1Cl`, the TGI in assay [1] was determined as 3.59 µM; in [2] it was 5.81 µM; in assay [3], 7.73 µM; in [4], 6.24 µM; in [5], 7.58 µM; in [6] it was 3.68 µM. Besides, the TGI in assay [7] amounted to 7.79 µM; in assay [8] it was 7.06 µM; in assay [9], 27.9 µM.
Consider `CC(C)(C)OC(=O)NCC(=O)N1CCN(C(=O)CNC(=O)OC(C)(C)C)CC1`, for which the TGI in [1], in [2], in assay [10], in assay [3], in assay [4] and in assay [5] was > 100 µM in each case. In addition, the TGI in assay [7], in assay [8] and in assay [9] was > 100 µM in each case.
Take `CCN1CCC(O)(/C=C/c2ccc(OC)cc2)C(C(=O)/C=C/c2ccc(OC)cc2)C1` (stereo not drawn): the TGI came out at 12.4 µM in assay [1]; 33.4 µM in assay [2]; 10.7 µM in assay [10]; 27.9 µM in assay [3]; 27.8 µM in assay [4]; 28 µM in assay [5]. Besides, the TGI in [7] was found to be 24.1 µM; in assay [8], 26.7 µM; in assay [9], 30.9 µM.
For the compound `O=c1ccc2nc(-c3ccccn3)nn(-c3ccccc3)c-2c1`, the GI50 in assay [2] was 3.76 µM; in assay [10], 0.783 µM; in [3], 2.19 µM; in assay [4] it was 6.93 µM; in assay [5], 2.24 µM; in assay [6], 11.4 µM. The results for the GI50 in assay [8] and in [9] were 1.66 µM and 1.92 µM, respectively. Further, the TGI in assay [2] came to 44.3 µM; in assay [10] it was 4.71 µM; in assay [3], 4.84 µM; in assay [4] it was 19.8 µM; in [5], 5.33 µM; in assay [6] it was 23.5 µM. Further, the TGI was 3.12 µM in assay [8] and 3.93 µM in assay [9].
In the case of `COc1ccc2nc3cc(Cl)ccc3c(NCCNc3c4ccc(Cl)cc4nc4ccc(OC)cc34)c2c1`, the GI50 in [7] is 1.89 µM; in [8], 1.97 µM; in assay [9], 2.06 µM. Also, the results for the TGI in [7], in assay [8] and in [9] were 3.94 µM, 3.42 µM and 3.69 µM, respectively.
With `CCCC(=O)[O-].N.N.N.N.N.[Co+3].[O-][Cl+3]([O-])([O-])[O-]`, the TGI in [1], in assay [2], in assay [3], in [4], in assay [5] and in assay [6] was > 100 µM throughout. Further, the TGI in [8] and in [9] was > 100 µM throughout.
Turning to `[N-]=[N+]=C(C(=O)N1CCCC1=O)S(=O)(=O)c1ccccc1`, the TGI in assay [1], in assay [2], in assay [10], in assay [3], in assay [4] and in assay [5] was > 100 µM each time. Moreover, the TGI in [6], in assay [8] and in [9] was > 100 µM throughout.
As to `CCOC(=O)N1CCC(=C2c3ccc(Cl)cc3CCc3cccnc32)CC1`, the TGI in assay [1] worked out at 33.4 µM; in [2] it was 36.3 µM; in assay [10], 23.8 µM; in assay [3], 35.6 µM; in assay [5] it was 24.4 µM; in [7], 35 µM. In addition, the TGI in [8] came to 29.3 µM; in assay [9], 29.6 µM.
Regarding `CCC[C@@H]1C(=O)N=C(N)N1C(=O)OCc1ccccc1`, the TGI in [1], in assay [2], in assay [10], in assay [3], in assay [5] and in assay [6] was > 100 µM each time. Also, the TGI in [8] and in assay [9] was > 100 µM throughout.
